Measurements taken from US20250177582A1, “HIGH-AFFINITY LIGANDS OF FIBROBLAST ACTIVATION PROTEIN FOR TARGETED DELIVERY APPLICATIONS” (PHILOCHEM AG, priority 2022, published 2025).
Entries after “also recorded” stand apart in the source; their conditions may differ. Read-outs that look alike come from different tables or passages of the source.

What was measured:
[1] = target: human FAP (Homo sapiens (Human), UniProt Q12884); test: Inhibition assay of FAP (fluorogenic substrate Z-Gly-Pro-AMC); type: biochemical; conditions: for FAP binding relative to the parent compound (in words): effect of arginine-based tail / of removing furan as group W; for FAP inhibition potency (in words): SAR comparison
Procedure: (§1) Inhibition assay of FAP. The compounds were precisely weighed (range between […]) on a micro-scale (HuberLab, Sartorius QUINTIX35-1S) and dissolved in DMSO to prepare stock solutions at 1 mM. Stock solutions were further diluted with FAP activation buffer (50 mM Tris, 100 mM NaCl, 1 mM EDTA, pH=7.4) to a final DMSO concentration of 10% v/v. 10 μL of each inhibitor were serially diluted in a 384 well plate (grenier-bio one, PS, F-bottom, Black, non-binding) with 10 μL of 10% DMSO FAP buffer (1:1 dilution). FAP (human and murine) was diluted to the desired concentration with FAP activation buffer and added to the serial dilution of inhibitor (10 μL for each well). Each protein-inhibitor solution was incubated for 30 minutes at room temperature. Each measurement was performed with an enzyme concentration (FAP) lower than the expected IC50. A 60 μM solution of substrate (Z-Gly-Pro-AMC) in FAP activation buffer (<1% DMSO) was added to the plate (10 μL for each well). The reaction was incubated from 1 minute to 48 hours (see FIG. 2) at room temperature (22° C.-25° C.). The emission was read at 465 nm (excitation wavelength 360 nm) for 40 μs by Tecan Spark (s.n. 1808004082). The following controls were added to each row: positive control (no inhibitor control, 10 μL of 10% DMSO FAP buffer+10 μL of FAP solution+10 μL of substrate solution), negative control (no protein control, 10 μL of 10% DMSO FAP buffer+10 μL of FAP activation buffer+10 μL of substrate solution).
(§2) Normalization of values: The “% of FAP activity” can be calculated with the following formula:
The concentration of substrate (Z-Gly-Pro-AMC) was kept constant=20 μM. Dashed lines corresponds to sets of data with unstable fitting. […] Error bars display SEM.
(§3) FIG. 3: Inhibition assay performed with compounds 1, 2, 3, 4, 5, 6, 8 against a) 66 pM human FAP and b) 66 pM murine FAP. The concentration of substrate (Z-Gly-Pro-AMC) was kept constant=20 μM. The assay was incubated for 48 hours at 22.6° C. Error bars display SEM.
(§4) FIG. 4: a) Inhibition assay performed with compounds 8, 9 and 10 against 66 pM human FAP. The assay was incubated for 17 hours at 25° C. b) Inhibition assay performed with compound 9 against 66 pM murine FAP. The assay was incubated for 17 hours at 25° C. In both assays the concentration of substrate (Z-Gly-Pro-AMC) was kept constant=20 μM. Error bars display SEM.
FIG. 19. A: Chemical structures and corresponding IC50(hFAP) values of compounds according to the present invention. B: Chemical structures and corresponding IC50 values of compounds where the propargyl moiety at position AA^2 was replaced by different groups (Me, iPr, Bn) using both R and S stereoisomers. The sites of modification have been highlighted with arrows. Each measurement was performed with a FAP concentration lower than the expected IC50. Depending on FAP concentration, the fluorescence was measured between 10 minutes and 48 h (at room temperature) after the addition of the fluorogenic substrate (Z-Gly-Pro-AMC). IC50 values and standard errors were calculated using “[Inhibitor] vs. response—Variable slope (four parameters)” fitting (Graphpad Prism). […] By introducing the quinoline-based moiety, a single-digit nanomolar inhibitor was obtained. […] The replacement of propargylglycine with S-phenylalanine improved potency of the lead compound of additional ˜2-folds (compound 14).

[2] = system: SK-RC-52.hFAP cells; test: Confocal microscopy on living cells; type: cell-based; conditions: 150 nM; imaged 1 h after incubation
Procedure: SK—RC-52.hFAP and SK—RC-52.wt cells were seeded into g-Slide 8 Well high Glass Bottom at a density of 5×10^4 cells per well in 300 μL of RPMI medium supplemented with 10% fetal calf serum (FCS), AA, and Hepes (10 mM) and allowed to grow overnight under standard culture conditions. Hoechst 33342 nuclear dye was used to stain nuclear structures. The culture medium was replaced with fresh medium containing either compound 36 or 29 (150 nM). Randomly selected colonies were imaged 1 h after incubation on the confocal microscope Zeiss LSM 880 airyscan (Zeiss). Fiji was used for the data processing and visualization.

[3] = system: FAP positive SKRC-52.hFAP; test: Flow cytometry (FACS) binding; type: cell-based; conditions: 100 nM; 1 h on ice
Procedure: (§5) Cells were detached from culture plates using Accutase cell detachment solution, counted and suspended to a final concentration of 1.25×10≢cell/100 μL in a solution of FACS buffer (1% bovine serum albumin, 2 mM EDTA, in 500 mL PBS pH 7.4). Aliquots of 2.5×10≡cells (200 μL) were spun down and resuspended in solutions of compound 36 and compound 29 (100 μL; 100 nM) in FACS buffer and incubated on ice in the dark for 1 h. Cells were washed once with 200 μl FACS (1% v/v)/PBS (pH=7.4), spun down, resuspended in a solution of FACS buffer and analyzed via a BD LSRFortessa™ Cell Analyzer (Biosciences). FlowJo Version 8.7 (Treestar) was used for the data analysis and visualization.

[4] = system: FAP negative SKRC-52.wt; test: Flow cytometry (FACS) binding; type: cell-based; conditions: 100 nM; 1 h on ice
Procedure: as §5

[5] = target: murine FAP (Mus musculus (Mouse), UniProt P97321); test: Inhibition assay of FAP (fluorogenic substrate Z-Gly-Pro-AMC); type: biochemical; conditions: substrate Z-Gly-Pro-AMC 20 μM; 66 pM murine FAP; room temperature
Procedure: as §1, §2, §3, §4

[6] = substrate Z-Gly-Pro-AMC 20 μM, FAP concentration lower than expected IC50 (66 pM in FIG. 3, 4), room temperature, read-out: IC50 vs human FAP

Chain of murine FAP (P97321 whole entry): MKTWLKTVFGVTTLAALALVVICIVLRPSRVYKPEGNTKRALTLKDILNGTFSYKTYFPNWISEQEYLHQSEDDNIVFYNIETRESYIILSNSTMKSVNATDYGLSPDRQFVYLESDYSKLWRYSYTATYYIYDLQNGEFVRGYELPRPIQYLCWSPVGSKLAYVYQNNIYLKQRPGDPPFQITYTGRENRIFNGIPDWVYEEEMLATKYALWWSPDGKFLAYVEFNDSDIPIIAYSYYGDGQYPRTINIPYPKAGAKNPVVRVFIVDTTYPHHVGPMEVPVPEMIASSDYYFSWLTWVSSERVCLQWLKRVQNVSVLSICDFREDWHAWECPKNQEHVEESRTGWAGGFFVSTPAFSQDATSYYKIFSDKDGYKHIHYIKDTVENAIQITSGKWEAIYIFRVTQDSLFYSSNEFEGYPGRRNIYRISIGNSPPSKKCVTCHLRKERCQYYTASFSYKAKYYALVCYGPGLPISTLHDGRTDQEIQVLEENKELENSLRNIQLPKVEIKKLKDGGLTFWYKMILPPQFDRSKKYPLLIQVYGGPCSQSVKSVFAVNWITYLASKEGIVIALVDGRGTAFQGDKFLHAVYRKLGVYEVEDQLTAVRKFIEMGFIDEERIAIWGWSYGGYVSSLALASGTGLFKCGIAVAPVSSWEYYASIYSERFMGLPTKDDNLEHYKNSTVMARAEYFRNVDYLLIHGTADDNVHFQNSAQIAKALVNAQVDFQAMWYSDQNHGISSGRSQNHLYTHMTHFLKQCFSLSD
Chain of human FAP (Q12884 whole entry): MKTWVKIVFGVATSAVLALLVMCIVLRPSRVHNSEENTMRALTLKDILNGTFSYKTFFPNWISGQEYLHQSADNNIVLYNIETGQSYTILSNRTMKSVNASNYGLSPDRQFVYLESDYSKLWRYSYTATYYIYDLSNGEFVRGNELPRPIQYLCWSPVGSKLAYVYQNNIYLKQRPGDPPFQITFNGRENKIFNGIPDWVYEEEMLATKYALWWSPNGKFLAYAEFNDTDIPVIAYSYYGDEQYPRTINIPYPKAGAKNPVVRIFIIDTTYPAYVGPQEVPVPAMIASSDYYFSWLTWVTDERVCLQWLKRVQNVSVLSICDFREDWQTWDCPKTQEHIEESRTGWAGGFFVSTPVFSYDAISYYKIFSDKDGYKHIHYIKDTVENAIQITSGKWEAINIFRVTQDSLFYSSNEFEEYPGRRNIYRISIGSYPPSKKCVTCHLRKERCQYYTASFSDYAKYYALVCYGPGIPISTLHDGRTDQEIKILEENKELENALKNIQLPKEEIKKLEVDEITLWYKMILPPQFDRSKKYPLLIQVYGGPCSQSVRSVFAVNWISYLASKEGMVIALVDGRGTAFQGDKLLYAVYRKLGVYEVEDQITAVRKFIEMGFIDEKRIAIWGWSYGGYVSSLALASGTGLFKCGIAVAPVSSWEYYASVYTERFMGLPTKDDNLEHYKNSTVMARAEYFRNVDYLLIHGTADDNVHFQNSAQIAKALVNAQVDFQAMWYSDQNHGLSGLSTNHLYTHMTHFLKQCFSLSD

IC50 [5] [nM]	SMILES	IC50 [1, 6] [nM]	also measured
–	C[C@@H](NC(=O)[C@H](CCCNC(=N)N)NC(=O)CCC(=O)Nc1cccc2c(C(=O)NCC(=O)N3CC(F)(F)C[C@H]3C#N)ccnc12)C(=O)N[C@@H](CCCCN)C(=O)O [Compound 19]	0.991	–
–	CN(C)C(=N)NCCC[C@H](NC(=O)CCC(=O)Nc1cccc2c(C(=O)NCC(=O)N3CC(F)(F)C[C@H]3C#N)ccnc12)C(=O)N[C@@H](Cc1ccccc1)C(=O)NCCNC(=S)Nc1ccc2c(c1)C(=O)OC21c2ccc(O)cc2Oc2cc(O)ccc21 [Compound 29]	–	internalization, confocal microscopy [2]: Internalization was not observed; staining pattern, confocal microscopy [2]: Membrane-specific staining; staining of FAP-positive cells, flow cytometry [3]: stained; binding on wild-type (FAP-negative) cells, flow cytometry [4]: no binding
–	C#CC[C@H](NC(=O)CCC(=O)Nc1cccc2c(C(=O)NCC(=O)N3CC(F)(F)C[C@H]3C#N)ccnc12)C(=O)N[C@@H](CCCCN)C(=O)O [Compound 10]	4.38	–
16.1	N#C[C@@H]1CC(F)(F)CN1C(=O)CNC(=O)c1ccnc2c(NC(=O)CCC(=O)O)cccc12 [Compound 8, (S)-4-((4-((2-(2-cyano-4,4-difluoropyrrolidin-1-yl)-2-oxoethyl)carbamoyl)quinolin-8-yl)amino)-4-oxobutanoic acid, reference compound]	10.9	IC50 ([1]; 22.6° C., [hFAP] 2.5 nM to 39 pM, substrate 20 μM, read-out: IC50 values from fitted curves, inhibition assay performed overtime): 6 to 21 nM
–	CC(C)[C@H](NC(=O)[C@H](CCCNC(=N)N)NC(=O)CCC(=O)Nc1cccc2c(C(=O)NCC(=O)N3CC(F)(F)C[C@H]3C#N)ccnc12)C(=O)N[C@@H](CCCCN)C(=O)O [Compound 16]	1.66	–
–	N#C[C@@H]1CC(F)(F)CN1C(=O)CN [reference compound]	24100	–
22700	C#CC[C@H](NC(=O)CCC(=O)N1CC(F)(F)C[C@H]1C#N)C(=O)N[C@@H](CCCCN)C(=O)O [Compound 6]	17200	FAP binding relative to the parent compound (in words) [1]: worsening
–	CC(C)[C@@H](NC(=O)[C@H](CCCNC(=N)N)NC(=O)CCC(=O)Nc1cccc2c(C(=O)NCC(=O)N3CC(F)(F)C[C@H]3C#N)ccnc12)C(=O)N[C@@H](CCCCN)C(=O)O [Compound 17]	0.697	–
–	CN(C)C(=N)NCCC[C@H](NC(=O)CCC(=O)Nc1cccc2c(C(=O)NCC(=O)N3CC(F)(F)C[C@H]3C#N)ccnc12)C(=O)N[C@@H](Cc1ccccc1)C(=O)NCCN [Compound 27]	1.02	–
–	C[C@H](NC(=O)[C@H](CCCNC(=N)N)NC(=O)CCC(=O)Nc1cccc2c(C(=O)NCC(=O)N3CC(F)(F)C[C@H]3C#N)ccnc12)C(=O)N[C@@H](CCCCN)C(=O)O [Compound 18]	1.54	–
3900	C#CC[C@H](NC(=O)c1coc(CNC(=O)CCC(=O)N2CC(F)(F)C[C@H]2C#N)c1)C(=O)N[C@@H](CCCCN)C(=O)O [Compound 5]	–	–
200000	N#C[C@@H]1CC(F)(F)CN1C(=O)CCC(=O)O [Compound 1]	249000	–
–	C#CC[C@H](NC(=O)[C@H](CCCNC(=N)N(C)C)NC(=O)c1coc(CNC(=O)CCC(=O)N2CC(F)(F)C[C@H]2C#N)c1)C(=O)N[C@@H](CCCCNC(=S)Nc1ccc2c(c1)C(=O)OC21c2ccc(O)cc2Oc2cc(O)ccc21)C(=O)O [Compound 36]	–	internalization, confocal microscopy [2]: Internalization was not observed; staining pattern, confocal microscopy [2]: Membrane-specific staining; staining of FAP-positive cells, flow cytometry [3]: stained; binding on wild-type (FAP-negative) cells, flow cytometry [4]: no binding
–	N#C[C@@H]1CC(F)(F)CN1C(=O)CNC(=O)c1ccnc2c(NC(=O)CCC(=O)N[C@@H](CCCNC(=N)N)C(=O)N[C@H](Cc3ccccc3)C(=O)N[C@@H](CCCCN)C(=O)O)cccc12 [Compound 15]	604	–
–	N#C[C@@H]1CC(F)(F)CN1C(=O)CNC(=O)c1ccnc2c(NC(=O)CCC(=O)N[C@@H](CCCNC(=N)N)C(=O)N[C@@H](Cc3ccccc3)C(=O)N[C@@H](CCCCN)C(=O)O)cccc12 [Compound 14]	0.353	improvement of potency over the lead compound on replacing propargylglycine with S-phenylalanine ([1]; L-arginine building block (R=H)): ~2 folds
154	CN(C)C(=N)NCCC[C@H](NC(=O)c1coc(CNC(=O)CCC(=O)N2CC(F)(F)C[C@H]2C#N)c1)C(=O)N[C@@H](CCCCN)C(=O)O [Compound 4]	178	FAP binding relative to the parent compound (in words) [1]: significant improvement
–	CN(C)C(=N)NCCC[C@H](NC(=O)CCC(=O)Nc1cccc2c(C(=O)NCC(=O)N3CC(F)(F)C[C@H]3C#N)ccnc12)C(=O)N[C@@H](Cc1ccccc1)C(=O)NCCNC(=O)OC(C)(C)C [Compound 26]	0.0748	–
–	CN(C)C(=N)NCCC[C@H](NC(=O)CCC(=O)Nc1cccc2c(C(=O)NCC(=O)N3CC(F)(F)C[C@H]3C#N)ccnc12)C(=O)N[C@@H](Cc1ccccc1)C(=O)N[C@@H](CCCCN)C(=O)O [Compound 11]	0.156	FAP inhibition potency (in words) [1]: picomolar range

SMILES	IC50 [5] [nM]	IC50 [1, 6] [nM]	also measured
C#CC[C@H](NC(=O)[C@H](CCCNC(=N)N(C)C)NC(=O)CCC(=O)Nc1cccc2c(C(=O)NCC(=O)N3CC(F)(F)C[C@H]3C#N)ccnc12)C(=O)N[C@@H](CCCCN)C(=O)O [Compound 9]	0.115	0.439	FAP inhibition potency (in words) [1]: sub-nanomolar range; also recorded: increased strongly
C#CC[C@@H](NC(=O)[C@H](CCCNC(=N)N(C)C)NC(=O)c1coc(CNC(=O)CCC(=O)N2CC(F)(F)C[C@H]2C#N)c1)C(=O)N[C@@H](CCCCN)C(=O)O [Compound 3]	38.4	60	–
